Source: patent US12668584B2, “Heterocyclic compounds as kinase inhibitors for therapeutic uses” (National Health Research Institutes, priority 2019, dated 2026)

Assays:
[1] = target: T1, CSF1R kinase (recombinant N-terminal GST-CSF1R, residues L534-C972) (Homo sapiens, UniProt P07333); experiment: CSF1R Kinase-Glo assay; format: biochemical; conditions: 40 μM ATP, 30° C. 180 min, read-out: Enzymatic Assay CSF1R enzyme IC50
T1 construct: Recombinant N-terminal GST-CSF1R (CSF1R residues L534-C972) containing the CSFIR kinase domain; made in house; host or cells: Sf9 insect cells
T1 sequence (P07333 534-972): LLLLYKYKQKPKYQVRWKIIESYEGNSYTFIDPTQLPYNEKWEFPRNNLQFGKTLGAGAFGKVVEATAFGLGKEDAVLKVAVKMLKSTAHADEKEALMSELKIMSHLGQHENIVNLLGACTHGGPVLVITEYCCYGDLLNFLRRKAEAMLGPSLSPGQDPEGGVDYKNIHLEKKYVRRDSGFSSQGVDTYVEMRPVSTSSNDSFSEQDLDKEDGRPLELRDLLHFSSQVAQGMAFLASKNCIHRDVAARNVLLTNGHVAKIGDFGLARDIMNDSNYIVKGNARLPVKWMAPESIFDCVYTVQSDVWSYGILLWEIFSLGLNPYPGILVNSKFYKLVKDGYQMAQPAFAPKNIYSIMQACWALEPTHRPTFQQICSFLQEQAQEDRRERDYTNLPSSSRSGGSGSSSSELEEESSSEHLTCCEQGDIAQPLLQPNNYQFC
Protocol: A study was conducted to test certain compounds described in EXAMPLE 1 in inhibiting CSF1R kinase activity.
Activity of CSF1R kinase was determined using a CSF1R Kinase-Glo assay. Recombinant N-terminal GST-CSF1R (CSF1R residues L534-C972) containing the CSFIR kinase domain was expressed in Sf9 insect cells and purified. The kinase assay was carried out in 96-well plates at 30° C. for 180 min with the tested compounds in a final volume of 50 μl including the following components: 25 mM Tris-HCl pH 7.4, 4 mM MnCl2, 10 mM MgCl2, 0.01% BSA, 0.5 mM NA3VO4, 0.02% Triton X-100, 40 μM ATP, 2 mM DTT and 20 μM poly(Glu,Tyr) 4:1 peptide, and 600 ng recombinant GST-CSF1R. Following incubation, 50 μl Kinase-Glo Plus Reagent (Promega, Madison, WI, USA) was added and the mixture was incubated at 25° C. for 20 min. A 70-μL aliquot of each reaction mixture was transferred to a black microtiter plate and luminescence was measured on Wallac Vector 1420 multilabel counter (PerkinElmer, Shelton, CT, USA). Percentage inhibition values were obtained by comparison of reaction rate with the rates in control wells (i.e., in the absence of test compound). IC50 values were calculated from a series of percentage inhibition values determined at a range of test compound concentrations using GraphPad Prism version 6 software (GraphPad, San Diego, CA, USA).

M-NFS-60 cells = experiment: MTS cell viability assay, M-NFS-60; format: cell-based; conditions: 72 h, read-out: Cellular Proliferation Assay M-NFS-60 (nM) GI50
Protocol: (§1) Studies were conducted to evaluate […] anticancer activity of certain compounds described in EXAMPLE 1 using 3-(4,5-dimethylthiazol-2-yl)-5-(3-carboxymethoxyphenyl)-2-(4-sulfophenyl)-2H-tetrazolium) (MTS) cell viability assays. Results from these studies are shown in Table 2 below (see columns 3 and 4).
(§2) The cell lines M-NFS-60 (ATCC® CRL-1838™) and BaF3-CSF1R-1600 were obtained from American Type Culture Collection (ATCC, Manassas, VA, USA). The stable BaF3-CSF1R-1600 cell line expresses ETV6-CSF1R fusion protein consisting of N-terminal ETS-variant gene 6 protein (ETV6 residues M1-G337) and CSF1R tyrosine kinase (CSF1R residues L533-C972). The M-NSF-60 and BaF3-CSF1R-1600 cells were cultured in RPMI1640 medium supplemented with 10% fetal bovine serum, 0.05 mM 2-ME, 10 U/ml penicillin, and 10 µg/ml streptomycin at 37° C. and 5% CO2.
(§3) M-NFS-60 and BaF3-CSF1R-1600 cells were seeded in 96-well plates at a density of 10000 cells/100 μl and 8000 cells/100 μl per well, respectively, for 16 h and treated with vehicle or various concentrations of test compounds in medium for 72 h. Viable cells were quantified using the MTS method (Promega, Madison, WI, USA) according to manufacturer's recommended protocol. The results were determined by measuring absorbance at 490 nm using a plate reader (Victor 2). The GI50 value was defined as the amount of compound that caused 50% reduction in cell viability in comparison with DMSO-treated (vehicle) control and was calculated using Prism GraphPad Prism version 6 software (GraphPad).

[2] = test system: BaF3-CSF1R-1600 cells (express ETV6-CSF1R fusion protein); experiment: MTS cell viability assay, BaF3-CSF1R-1600; format: cell-based; conditions: 72 h, read-out: Cellular Proliferation Assay BaF3-CSF1R GI50
Protocol: as §1, §2, §3

Structure (SMILES)	IC50 [1] [nM]	GI50 (M-NFS-60 cells) [nM]	GI50 [2] [nM]
COc1ccc(Cl)cc1NC(=O)Nc1ccc(Oc2ncnc3cc(N(C)C)ccc23)cc1 [Compound 104]	20 to 100	100 to 1000	20 to 100
COc1ccc(NC(=O)Nc2ccc(Oc3ncnc4cc(N(C)C)ccc34)cc2)cc1Cl [Compound 105]	20 to 100	20 to 100	20 to 100
CN(C)c1ccc2c(Oc3ccc(NC(=O)Nc4ccc(F)cc4)cc3)ncnc2c1 [Compound 106]	< 20	100 to 1000	> 1000
COCCN1CCN(c2ccc3c(Oc4ccc(NC(=O)NCc5ccc(C(F)(F)F)nc5)cc4)ncnc3c2)CC1 [Compound 108]	20 to 100	20 to 100	20 to 100
